{
  "source": "patent US20040087623A1",
  "about": "“Pyrazole derivatives against tgf overexpression” (priority 2001, published 2004)",
  "note": "Counter-ions that a name gives are not always drawn.",
  "data": [
    {"test_system": "TGF-β signaling (PAI-1 promoter-luciferase in HepG2 cells)", "experiment": "Assay 1: inhibition of TGF-β induced PAI-1 promoter luciferase reporter in HepG2 cells", "conditions": "500 μM CPO with TGF-β; % of those obtained in column 11 (TGF-β only)", "method": "The assay was performed in HepG2 cells stably transfected with the PAI-1 promoter (known to be a strong TGF-β responsive promoter) linked to a luciferase (firefly) reporter gene. The compounds were selected on their ability to inhibit luciferase activity in cells exposed to TGF-β. In addition cells were transfected with a second luciferase (Renilla) gene which was not driven by a TGF-β responsive promoter and was used as a toxicity control.\n(96 well-)microplates are seeded, using a multidrop apparatus, with the stably transfected cell line at a concentration of 35000 cells per well in 200 μl of serum-containing medium. These plates are placed in a cell incubator.\n18 to 24 hours later (Day 2), cell-incubation procedure is launched. Cells are incubated with TGF-β and a candidate compound at concentrations in the range 50 nM to 10 μM (final concentration of DMSO 1%). The final concentration of TGF-β (rhTGFβ-1) used in the test is 1 ng/mL. […] The final volume of the test reaction is 150 μl. Each well contains only one candidate compound and its effect on the PAI-1 promoter is monitored.\nColumns 11 and 12 are employed as controls. Column 11 contains 8 wells in which the cells are incubated in the presence of TGF-β, without a candidate compound. Column 11 is used to determine the ‘reference TGF-β induced firefly luciferase value’ against which values measured in the test wells (to quantify inhibitory activity) may be compared. In wells A12 to D12, cells are grown in medium without TGF-β. The firefly luciferase values obtained from these positions are representative of the ‘basal firefly luciferase activity’. In wells E12 to H12, cells are incubated in the presence of TGF-β and 500 μM CPO (Cyclopentenone, Sigma), a cell toxic compound.\n12 to 18 hours later (day 3), the luciferase quantification procedure is launched. The following reactions are performed using reagents obtained from a Dual Luciferase Assay Kit (Promega). Cells are washed and lysed with the addition of 10 μl of passive lysis buffer (Promega). Following agitation (15 to 30 mins), luciferase activities of the plates are read in a dual-injector luminometer (BMG lumistar). For this purpose, 50 μl of luciferase assay reagent and 50 μl of ‘Stop & Glo’ buffer are injected sequentially to quantify the activities of both luciferases. The mean Luciferase activity value obtained in wells A11 to H11 (Column 11, TGF-β only) is considered to represent 100% and values obtained in wells A12 to D12 (cells in medium alone) give a basal level (0%). For each of the compounds tested, a concentration response curve is constructed from which an IC50 value can be determined graphically.", "values": [
      {"smiles": "O=C1C=CCC1", "note": "[CPO, Cyclopentenone, reference compound]", "firefly and renilla luciferase activities (toxicity control)": "around 50%"}
    ]},
    {"test_system": "TGF-β signaling (PAI-1 promoter-luciferase in HepG2 cells)", "experiment": "Assay 1: inhibition of TGF-β induced PAI-1 promoter luciferase reporter in HepG2 cells", "conditions": "Homo sapiens, HepG2, read-out: IC50 value in Assay 1", "units": {"IC50": "µM"}, "values": [
      {"smiles": "c1ccc(-c2n[nH]cc2-c2ccnc(-c3ccc(N4CCOCC4)cc3)c2)nc1", "note": "[Example 13, 4-{4-[4-(3-Pyridin-2-yl-1H-pyrazol-4-yl)-pyridin-2-yl]-phenyl}-morpholine]", "IC50": "≤ 5"},
      {"smiles": "COc1ccc(-c2cc(-c3c[nH]nc3-c3ccccn3)ccn2)cc1", "note": "[Example 3, 2-(4-Methoxyphenyl)-4-(3-pyridin-2-yl-1H-pyrazol-4-yl)pyridine]", "IC50": "≤ 5"},
      {"smiles": "c1ccc(-c2n[nH]cc2-c2ccnc(-c3ccc(CN4CCOCC4)cc3)c2)nc1", "note": "[Example 19, {4-[4-(3-Pyridin-2-yl-1H-pyrazol-4-yl)pyridin-2-yl]benzyl}-morpholine hydrochloride]", "IC50": "≤ 5"},
      {"smiles": "Clc1ccc(-c2cc(-c3c[nH]nc3-c3ccccn3)ccn2)cc1", "note": "[Example 5, 2-(4-Chlorophenyl)-4-(3-pyridin-2-yl-1H-pyrazol4-yl)pyridine]", "IC50": "≤ 5"},
      {"smiles": "N#CCCNCc1ccc(-c2cc(-c3c[nH]nc3-c3ccccn3)ccn2)cc1", "note": "[Example 12, 3-({4-[4-(3-Pyridin-2-yl-1H-pyrazol-4-yl)pyridin-2-yl]benzyl}amino)propanenitrile]", "IC50": "≤ 5"},
      {"smiles": "O=C(c1ccc(-c2cc(-c3c[nH]nc3-c3ccccn3)ccn2)cc1)N1CCOCC1", "note": "[Example 39, 4-{4-[4-(3-Pyridin-2-yl-1H-pyrazol-4-yl)-pyridin-2-yl]-benzoyl}-morpholine]", "IC50": "≤ 5"},
      {"smiles": "O=C(NCC1CCOCC1)c1ccc(-c2cc(-c3c[nH]nc3-c3ccccn3)ccn2)cc1", "note": "[Example 44, 4-[4-(3-Pyridin-2-yl-1H-pyrazol-4-yl)-pyridin-2-yl]-N-(tetrahydropyran-4-yl-methyl)-benzamide]", "IC50": "≤ 5"},
      {"smiles": "c1ccc(-c2n[nH]cc2-c2ccnc(-c3ccc(CNC4CCOCC4)cc3)c2)nc1", "note": "[Example 18]", "IC50": "≤ 5"},
      {"smiles": "O=C(CCN1CCOCC1)Nc1ccc(-c2cc(-c3c[nH]nc3-c3ccccn3)ccn2)cc1", "note": "[Example 26]", "IC50": "≤ 5"},
      {"smiles": "O=C(CCN1CCCCC1)Nc1ccc(-c2cc(-c3c[nH]nc3-c3ccccn3)ccn2)cc1", "note": "[Example 25, 3-Piperidin-1-yl-N{4-[4-(3-pyridin-2-yl-1H-pyrazol-4-yl)-pyridin-2-yl]-phenyl}-propionamide hydrochloride]", "IC50": "≤ 5"},
      {"smiles": "COCCN(C)C(=O)c1ccc(-c2cc(-c3c[nH]nc3-c3ccccn3)ccn2)cc1", "note": "[Example 45, N-(2-Methoxy-ethyl)-N-methyl-4-[4-(3-pyridin-2-yl-1H-pyrazol-4-yl)-pyridin-2-yl]-benzamide]", "IC50": "≤ 5"},
      {"smiles": "CN(C)C1CCN(C(=O)c2ccc(-c3cc(-c4c[nH]nc4-c4ccccn4)ccn3)cc2)CC1", "note": "[Example 40, (4-Dimethylamino)-1-{4-[4-(3-pyridin-2-yl-1H-pyrazol-4-yl)-pyridin-2-yl]-benzoyl}-piperidine]", "IC50": "≤ 5"},
      {"smiles": "O=C(CN1CCCC1)Nc1ccc(-c2cc(-c3c[nH]nc3-c3ccccn3)ccn2)cc1", "note": "[Example 22, 2-Pyrrolidin-1-yl-N-{4-[4-(3-pyridin-2-yl-1H-pyrazol-4-yl)-pyridin-2-yl]-phenyl}-acetamide]", "IC50": "≤ 5"},
      {"smiles": "O=C(NC1CCOCC1)c1ccc(-c2cc(-c3c[nH]nc3-c3ccccn3)ccn2)cc1", "note": "[Example 28, 4-[4-(3-Pyridin-2-yl-1H-pyrazol-4-yl)-pyridin-2-yl]-N-(tetrahydro-pyran-4-yl)-benzamide]", "IC50": "≤ 5"},
      {"smiles": "O=C(CN1CCCCC1)Nc1ccc(-c2cc(-c3c[nH]nc3-c3ccccn3)ccn2)cc1", "note": "[Example 21, 2-Piperidin-1-yl-N-{4-[4-(3-pyridin-2-yl-1H-pyrazol-4-yl)-pyridin-2-yl]-phenyl}-acetamide]", "IC50": "≤ 5"},
      {"smiles": "c1ccc(-c2cc(-c3c[nH]nc3-c3ccccn3)ccn2)cc1", "note": "[Example 1, 2-Phenyl-4-(3-pyridin-2-yl-1H-pyrazol-4-yl)pyridine]", "IC50": "≤ 5"},
      {"smiles": "Cn1cnc(COc2ccc(-c3cc(-c4c[nH]nc4-c4ccccn4)ccn3)cc2)c1", "note": "[Example 14, 2-[4-(1-Methyl-1-H-imidazol-4-ylmethoxy)-phenyl]-4-(3-pyridin-2-yl-1H-pyrazol-4-yl)-pyridine]", "IC50": "≤ 5"},
      {"smiles": "c1ccc(-c2n[nH]cc2-c2ccnc(-c3ccc(OCCN4CCCC4)cc3)c2)nc1", "note": "[Example 11, 2-[4-(2-Pyrrolidin-1-ylethoxy)-phenyl]-4-(3-pyridin-2-yl-1H-pyrazol-4-yl)pyridine]", "IC50": "≤ 5"},
      {"smiles": "Cn1cncc1COc1ccc(-c2cc(-c3c[nH]nc3-c3ccccn3)ccn2)cc1", "note": "[Example 16, 2-[4-(3-Methyl-3H-imidazol-4-ylmethoxy)-phenyl]-4-(3-pyridin-2-yl-1-H-pyrazol-4)-pyridine]", "IC50": "≤ 5"},
      {"smiles": "O=C(CN1CCOCC1)Nc1ccc(-c2cc(-c3c[nH]nc3-c3ccccn3)ccn2)cc1", "note": "[Example 23, 2-Morpholin-1-yl-N-{4-[4-(3-pyridin-2-yl-1H-pyrazol-4-yl)-pyridin-2-yl]phenyl}-acetamide]", "IC50": "≤ 5"},
      {"smiles": "COCCNC(=O)c1ccc(-c2cc(-c3c[nH]nc3-c3ccccn3)ccn2)cc1", "note": "[Example 46, N-(2-Methoxy-ethyl)-4-[4-(3-pyridin-2-yl-1H-pyrazol-4-yl)-pyridin-2-yl]-benzamide]", "IC50": "≤ 5"},
      {"smiles": "CN(C)Cc1ccc(-c2cc(-c3c[nH]nc3-c3ccccn3)ccn2)cc1", "note": "[Example 43, Dimethyl-{4-[4-(3-pyridin-2-yl-1H-pyrazol-4-yl)pyridin-2-yl]-benzyl}-amine]", "IC50": "≤ 5"},
      {"smiles": "CN(Cc1ccc(-c2cc(-c3c[nH]nc3-c3ccccn3)ccn2)cc1)c1cccnc1", "note": "[Example 20, Pyridin-3-yl-methyl-{4-[4-(3-pyridin-2-yl-1H-pyrazol-4-yl)pyridin-2-yl]benzyl}-amine]", "IC50": "≤ 5"},
      {"smiles": "c1ccc(-c2n[nH]cc2-c2ccnc(-c3ccc(OCCn4ccnc4)cc3)c2)nc1", "note": "[Example 17, 2-[4-(2-{1H-Imidazol-1-yl}-ethoxy)-phenyl]-4-(3-pyridin-2-yl-1H-pyrazol-4-yl)-pyridine]", "IC50": "≤ 5"},
      {"smiles": "COC1CCN(Cc2ccc(-c3cc(-c4c[nH]nc4-c4ccccn4)ccn3)cc2)CC1", "note": "[Example 34, 4-Methoxy-1-{4-[4-(3-pyridin-2-yl-1H-pyrazol-4-yl)pyridin-2-yl]benzyl}-piperidine]", "IC50": "≤ 5"},
      {"smiles": "CN1CCN(CCC(=O)Nc2ccc(-c3cc(-c4c[nH]nc4-c4ccccn4)ccn3)cc2)CC1", "note": "[Example 27, 3-(4-Methyl-piperazin-1-yl)-N{4-[4-(3-pyridin-2-yl-1H-pyrazol-4-yl)-pyridin-2yl]-phenyl}-propionamide]", "IC50": "≤ 5"},
      {"smiles": "Cn1ccnc1COc1ccc(-c2cc(-c3c[nH]nc3-c3ccccn3)ccn2)cc1", "note": "[Example 15, 2-[4-(1-Methyl-1H-imidazol-2-ylmethoxy)-phenyl]-4-(3-pyridin-2-yl-1H-pyrazol-4-yl)pyridine]", "IC50": "≤ 5"},
      {"smiles": "CCN1CCCC1CNC(=O)c1ccc(-c2cc(-c3c[nH]nc3-c3ccccn3)ccn2)cc1", "note": "(stereo not shown) [Example 29, N-(1-Ethyl-pyrolidin-2-ylmethyl)-4-[4-(3-pyridin-2-yl-1H-pyrazol-4-yl)-pyridin-2-yl]-benzamide]", "IC50": "≤ 5"},
      {"smiles": "CN1CCN(C(=O)c2ccc(-c3cc(-c4c[nH]nc4-c4ccccn4)ccn3)cc2)CC1", "note": "[Example 38, 1-Methyl-4-{4-[4-(3-pyridin-2-yl-1H-pyrazol-4-yl)-pyridin-2-yl]-benzoyl}-piperazine]", "IC50": "≤ 5"},
      {"smiles": "c1ccc(-c2n[nH]cc2-c2ccnc(-c3ccco3)c2)nc1", "note": "[Example 6, 2-(Furan-2-yl)-4-(3-pyridin-2-yl-1H-pyrazol-4-yl)pyridine]", "IC50": "≤ 5"},
      {"smiles": "CN1CCC(NCc2ccc(-c3cc(-c4c[nH]nc4-c4ccccn4)ccn3)cc2)CC1", "note": "[Example 37, (1-Methyl-piperidin-4-yl)-{4-[4-(3-pyridin-2-yl-1H-pyrazol-4-yl)pyridin-2-yl]benzyl}-amine]", "IC50": "≤ 5"},
      {"smiles": "Cc1ccc(-c2cc(-c3c[nH]nc3-c3ccccn3)ccn2)cc1", "note": "[Example 8, 2-(4-Methylphenyl)-4-(3-pyridin-2-yl-1H-pyrazol-4-yl)pyridine]", "IC50": "≤ 5"},
      {"smiles": "FC(F)(F)c1ccc(-c2cc(-c3c[nH]nc3-c3ccccn3)ccn2)cc1", "note": "[Example 2, 2-[4(Trifluoromethyl)Phenyl]-4-(3-pyridin-2-yl-1H-pyrazol-4-yl) Pyridine]", "IC50": "≤ 5"},
      {"smiles": "Fc1ccc(-c2cc(-c3c[nH]nc3-c3ccccn3)ccn2)cc1", "note": "[Example 4, 2-(4-Fluorophenyl)-4-(3-pyridin-2-yl-1H-pyrazol-4-yl)pyridine]", "IC50": "≤ 5"},
      {"smiles": "CCc1ccc(-c2cc(-c3c[nH]nc3-c3ccccn3)ccn2)cc1", "note": "[Example 9, 2-(4-Ethylphenyl)-4-(3-pyridin-2-yl-1H-pyrazol-4-yl)pyridine]", "IC50": "≤ 5"},
      {"smiles": "CN1CCN(CC(=O)Nc2ccc(-c3cc(-c4c[nH]nc4-c4ccccn4)ccn3)cc2)CC1", "note": "[Example 24, 2-(4-Methyl-piperazin-1-yl)-N-{4-[4-(3-pyridin-2-yl-1H-pyrazol-4-yl)-pyridin-2-yl]-phenyl}-acetamide]", "IC50": "≤ 5"},
      {"smiles": "FC(F)(F)Oc1ccc(-c2cc(-c3c[nH]nc3-c3ccccn3)ccn2)cc1", "note": "[Example 7, 2-(4-Trifluoromethoxyphenyl)-4-(3-pyridin-2-yl-1H-pyrazol-4-yl)pyridine]", "IC50": "≤ 5"},
      {"smiles": "O=C(NCC1CCCCC1)c1ccc(-c2cc(-c3c[nH]nc3-c3ccccn3)ccn2)cc1", "note": "[Example 47, N-Cyclohexylmethyl-4-[4-(3-pyridin-2-yl-1H-pyrazol-4-yl)-pyridin-2-yl]-benzamide]", "IC50": "≤ 5"},
      {"smiles": "c1ccc(-c2n[nH]cc2-c2ccnc(-c3ccsc3)c2)nc1", "note": "[Example 10, 2-(Thiophen-3-yl)-4-(3-pyridin-2-yl-1H-pyrazol-4-yl)pyridine]", "IC50": "≤ 5"}
    ]}
  ]
}
